From patent US20070218504A1, “HUMAN LEPTIN-DERIVED POLYPEPTIDES AND USES THEREOF” (UNIVERSITY OF PITTSBURGH, priority 2006, published 2007)

Key:
ob/ob mice [1] = experiment: Subcutaneous micro-osmotic pump infusion of human CRP and human leptin in ob/ob mice; format: in vivo, mouse; details: for effect of CRP alone on food intake and body weight: CRP without leptin
Description: Micro-osmotic pumps (#1007D, DURECT, Cupertino, Calif.) were subcutaneously implanted into ob/ob or wild-type mice according to the instructions of the manufacturer. The osmotic pumps were pre-filled with saline, CRP, leptin or leptin plus CRP. Food intake (24-hour), body weight, and body temperature were monitored daily post-surgery. Blood glucose concentrations were measured using tail-vein blood samples using a Precision Plus® glucose meter, product of Medisense (Abbot Park, Ill.).
Human- and mouse-leptin concentrations were measured using ELISA kits from CHEMICON (Temecular, Calif.) and R&D Systems (Minneapolis, Minn.), respectively, accordingly to the instructions of the manufacturers. Serum mouse insulin and human CRP were determined with ELISA kits from LINCO Research (St. Charles, Mo.) and HELICA (Fullerton, Calif.), respectively. Serum- and tissue-triglycerides were determined with the protocols described previously (19).
Various amounts of human CRP, either alone or with human leptin, were administered via micro-osmotic pumps implanted s.c. into 8-week old ob/ob mice.
The above in vivo data were harvested from mice experiencing infusions of a mixture of CRP and leptin stored in a single mini-osmotic pump. Human CRP and leptin were also infused in separate osmotic pumps. […] Also compared to infusion from a single pump, detectable effects of human CRP on leptin were realized later, likely due to the time required to achieve diffusion and binding equilibrium.

ob/ob mice [2] = experiment: Intracerebralventricular (i.c.v.) injection of human CRP and leptin in ob/ob mice, food intake and body weight; format: in vivo, mouse
Description: Male C57BL/6J ob/ob mice used in this study were obtained from the Jackson Laboratory, Bar Harbor. Mice (7-8 weeks of age) were fed standard chow and water ad libitum, housed in individual cages under controlled temperature at 22° C. and a 12-hour light-dark cycle with light from 0700 to 1900 h. Food intake and body weight were measured daily throughout the study. All experimental procedures were performed according to protocols approved by the Institutional Animal Care and Use Committee at the University of Pittsburgh. Cannulas were surgically implanted into the lateral ventricles of male ob/ob mice. Specifically, the mice were intraperitoneally anesthetized with 250 mg/Kg Avertin (Sigma-Aldrich). A plastic cannula was inserted into lateral cerebral ventricle: −0.7 mm relative to bregma, 1.3 mm lateral of midline, and 2 mm down to the calvarium. The exteriorized cannula was secured on the skull with original Super Glue. To prevent the cannula from becoming blocked by blood clots, a 28-gauge stainless syringe pinhead was inserted into each cannula. The animals were allowed to recover for 1 week after surgery until the food-intake reaches at least 90% of the pre-operative level. All agents were injected slowly with a volume of 1 μl using a 5 μl syringe (Hamilton, Reno, Nev.). For instance, human CRP was injected at a lower concentration of 1.2 μg per animal and a higher concentration of 2.3 μg per animal into the lateral ventricles. The i.c.v injection of human CRP was followed 24 hours later by injection of human leptin at a sub-maximal dose of 100 ng/animal. In a parallel experiment, human leptin was also injected via i.c.v. following a pre-injection of PBS. In each injection scheme, food was returned to the animals 1 hour after the injection, and the amount of food-intake and body weight were measured 24 hours later. All paired comparisons were subject to a two-tailed Student t-test with P<0.05 considered statistically significant. Additionally, human leptin was injected via i.c.v. for an extended period of two days subsequent to a pre-injection of human CRP with a dosage of 2.3 μg/injection. In a parallel experimental scheme, daily injection of human leptin was performed for two consecutive days subsequent to a pre-injection of PBS.

[3] = human leptin 100 ng/animal i.c.v. after PBS pre-injection, 24 hours

Substance | effect of human CRP on physiological actions of human leptin, separate osmotic pumps (ob/ob mice [1]; food intake, body weight, blood glucose, serum insulin, matched serum CRP) | effect of co-infused human CRP on leptin-induced reduction of food intake and body weight, low dosage (ob/ob mice [1]; human CRP 10 μg/day with human leptin, single pump) | effect on increase of rectal temperature induced by leptin (ob/ob mice [1]; human CRP 40 μg/day) | effect of co-infused human CRP on leptin actions to restrain appetite and induce weight loss, high dosage (ob/ob mice [1]; human CRP 40 μg/day with human leptin, single pump) | activation of STAT3 in hypothalamic tissues on co-infusion of CRP with leptin (ob/ob mice [1]; ob/ob mice) | effect of CRP alone on food intake and body weight (ob/ob mice [1]; ob/ob mice) | effect of CRP alone on food intake and body weight (ob/ob mice [1]; ob/ob mice, listed as CRP) | effect of co-infused human CRP on leptin's alleviation of diabetes (ob/ob mice [1]; ob/ob mice, co-infusion with leptin) | effect of CRP pre-injection on satiety and weight reducing effects of human leptin, 1.2 μg (ob/ob mice [2]; human CRP 1.2 μg i.c.v. 24 hours before leptin) | effect of CRP pre-injection on first injection of human leptin (ob/ob mice [2]; human CRP 2.3 μg/injection) | effect of CRP pre-injection on second injection of human leptin (ob/ob mice [2]; human CRP 2.3 μg/injection) | effect of CRP pre-injection on satiety and weight reducing effects of human leptin, 2.3 μg (ob/ob mice [2]; human CRP 2.3 μg/μl i.c.v. 24 hours before leptin) | food consumed after CRP alone compared to PBS alone (ob/ob mice [2]; i.c.v., ob/ob mice) | total human leptin concentrations in the sera (ob/ob mice [1]; all groups infused with leptin (leptin only or leptin plus CRP), separate osmotic pumps) [ng/mL] | effect of leptin on diabetes (blood glucose, plasma insulin, serum- and hepatic triglyceride) (ob/ob mice [1]; ob/ob mice) | effect of human leptin on food-intake and body weight (ob/ob mice [1]; ob/ob mice, 0.3 mg/kg/day s.c. infusion, 6 days) | effect of daily injection of human leptin for two days on food intake and body weight (ob/ob mice [2]; after PBS pre-injection) | decrease in food-intake (ob/ob mice [2]; [3]) [%] | reduction of body weight (ob/ob mice [2]; [3]) [%]
human CRP: human C-reactive protein, purified preparation from a commercial source | attenuate the physiological actions of human leptin | only partially attenuated | completely blocked | completely block | inhibited | did not affect food intake or body weight | does not influence food intake and body weight | reverted these effects | partially blunted | completely blunted | at least partially blocked | completely blocked | essentially the same amount of food | – | – | – | – | – | –
human leptin: human recombinant leptin | – | – | – | – | – | – | – | – | – | – | – | – | – | 15 to 20 | alleviated diabetes | expected reduction in food-intake and body weight | gradual decreases in food intake and body weight | 40.2 | 2.17
